Reference: US20100008894A1, “Process of Screening a Molecule as a Candidate Drug for the Treatment of Bipolar Disorder” (Institute pasteur, priority 2005, published 2010)

What was measured:
CysQ [1] = biological target: T1, CysQ (Escherichia coli, UniProt P22255); format: biochemical, E. coli
T1 construct: made in house; host or cells: E. coli MG1655 carrying pUM404, arabinose-induced

NM23-H2 = NM23-H2 (Homo sapiens, UniProt P22392); details: cited from earlier work
Orn [2] = biological target: T2, Orn (Escherichia coli, UniProt P0A784); experiment: Orn activity assay (degradation of RNA-oligo 5mer); format: biochemical, E. coli; details: 10 μM inhibitor; 3 μM 5′Cy5-CCCCC3′ RNA
T2 construct: made in house; host or cells: E. coli MG1655 carrying pUM408, arabinose-induced
Method: Custome made RNA-oligo 5mers (5′Cy5-CCCCC3′), obtained from Proligo, were used as substrate for in vitro activity assays. 30 μl reactions containing 50 mM HEPES pH 7.5, 5 mM MnCl2, 3 μM substrate RNA and 0.1 μg oligoribonuclease were incubated at 37° C., and reactions were initiated by adding substrate. Inhibitors were added as indicated in the text. At intervals, 5 μl reaction aliquots were taken and stopped by adding an equal volume of sample buffer (95% formamide, 20 mM EDTA, 0.1% bromphenol blue) and frozen at −20° C. For analysis of the reaction products, samples were heated at 80° C. for 3 minutes and 2.5 μl was applied to PAGE on a 22% SDS-PAA gel containing 2×TBE and run in 2×TBE. Fluorescent RNA oligos were visualized using a Molecular Dynamics STORM 860 in 650-nm long-pass filter mode.
Given the strong affinity of Orn for pAp, it was investigated whether pAp affects Orn activity. […] Those small RNA-oligos are called here nanoRNAs, in order to distinguish them from microRNAs, which have become a subject of extensive studies in the last several years. RNA-oligo 5-mers (5′-CCCCC-3′) labeled at their 5′-phosphate end with the sulfoindocyanine succinimidyl ester cyanine 5 (Cy5) were therefore used as substrate for in vitro assays with purified recombinant Orn. […]

Orn [3] = biological target: T2, Orn; experiment: pAp/AMP-binding assay with recombinant Orn; parameters: species or system E. coli; details: 15 μg protein, 5 μl agarose
Method: (§1) 30 μl samples containing 15 μg of Orn-His or CysQ-His in pAp-agarose buffer containing 100 mM NaCl were incubated with 5 μl of prewashed pAp- or AMP-agarose by rotating for 1 hour at 4° C. in durapore spin columns (Millipore). Beads were removed by centrifugation, and 5 μl of the unbound fraction, designated flow through was measured for protein content using Bio-Rad protein assay. The fraction bound to the beads was eluted by the addition of 40 μl of hot SDS-sample buffer and incubation for 15 minutes at 65° C.
(§2) Orn is an essential protein in E. coli involved in mRNA degradation. It has 3′ to 5′ exoribonuclease activity selectively active on short ribonucleotides. 5′adenosine monophosphate (AMP) is known to inhibit Orn (Datta & Niyogi, 1975). It was therefore important to compare binding of Orn to AMP and pAp. To this end recombinant Orn has been purified and its binding was measured to equal amounts of pAp- or AMP-agarose, both affinity substrates with identical binding capacities, CysQ was included as a positive control. Similar experiments were done with cell free extracts from strains overexpressing Orn or CysQ. […] Furthermore, significant amounts of Orn, roughly one third, but not CysQ bind to AMP-agarose. […]

CysQ [4] = biological target: T1, CysQ; experiment: pAp/AMP-binding assay with recombinant CysQ; parameters: species or system E. coli; details: 15 μg protein, 5 μl agarose
Method: as §1, §2

Sfn [5] = biological target: T3, Sfn (Homo sapiens, UniProt Q9Y3B8); experiment: Sfn-catalyzed degradation of oligo RNA; format: biochemical
T3 construct: His tag; made in house
T3 sequence (Q9Y3B8 26-237): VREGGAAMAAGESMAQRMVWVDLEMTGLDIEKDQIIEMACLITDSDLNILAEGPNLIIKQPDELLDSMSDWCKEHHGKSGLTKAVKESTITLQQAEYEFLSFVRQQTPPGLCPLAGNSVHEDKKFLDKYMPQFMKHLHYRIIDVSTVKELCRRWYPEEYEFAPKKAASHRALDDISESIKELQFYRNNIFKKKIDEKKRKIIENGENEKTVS
Method: (§3) FIG. 9: Sensitivity of Sfn-catalyzed degradation of oligo RNA to pAp. Shown is the quantification of the distribution of reaction products that were separated on 22% PAA gels. Reactions included 0.5 μg Sfn and 3 μM of RNA oligo 5mer (5′Cy5-CCCCC3′). Reactions were started by the addition of enzyme. 20 μM or 50 μM pAp was present where indicated. Closed circle: 5mer, open circle: 4mer, closed triangle: 3mer, open triangle: 2mer, square: 1mer.
The term nanoRNA has been introduced to describe these extremely short RNA oligos. The Inventors have purified His-tagged Sfn in order to evaluate its sensitivity to pAp in-vitro. Inhibition of Sfn-catalyzed degradation of nanoRNA was tested at two concentrations of the inhibitor, 20 and 50 μM.

Sfn [6] = biological target: T3, Sfn; experiment: Sfn-catalyzed degradation of oligo DNA; format: biochemical; details: 50 μM pAp; DNA oligo 5mer
Method: as §3, with “10:” for “9:”, “DNA” for “RNA”, “3” for “0.5”, “enzyme.” for “enzyme. 20 μM or”, “2mer. Monomers could not be included into this calculation due to their inability to enter the gel.” for “2mer, square: 1mer.”

PARP = biological target: T4, PARP (Homo sapiens, UniProt P09874); experiment: Colorimetric PARP assay from Trevigen; format: biochemical; details: 1 μM pAp, in vitro
T4 construct: purchased Trevigen
Excerpt: The Inventors plan to verify this effect using an independent method, as they are not certain the effect that can be observed with the kit they used for this experiment (Colorimetric PARP assay from Trevigen) is independent of the nature of the inhibitor, as it seems that the phenomenon of self-inhibition of PARP due to auto modification has an important impact on the result. They plan therefore to measure PARP activity in-vitro in the presence or absence of pAp according to J. C. Ame using ^32P-NAD.

T1 sequence (P22255 whole entry): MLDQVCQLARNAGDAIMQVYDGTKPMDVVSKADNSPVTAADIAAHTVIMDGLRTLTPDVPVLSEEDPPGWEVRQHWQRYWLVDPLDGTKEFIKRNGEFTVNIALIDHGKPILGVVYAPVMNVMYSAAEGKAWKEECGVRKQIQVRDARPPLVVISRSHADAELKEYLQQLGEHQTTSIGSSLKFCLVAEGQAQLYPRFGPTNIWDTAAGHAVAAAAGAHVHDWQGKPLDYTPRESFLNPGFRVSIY
T2 sequence (P0A784 whole entry): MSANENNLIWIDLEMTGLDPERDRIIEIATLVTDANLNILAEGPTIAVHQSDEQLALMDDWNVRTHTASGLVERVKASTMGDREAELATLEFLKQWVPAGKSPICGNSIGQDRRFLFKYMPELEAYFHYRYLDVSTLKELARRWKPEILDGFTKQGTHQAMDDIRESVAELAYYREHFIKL
NM23-H2, sequence (P22392 whole entry): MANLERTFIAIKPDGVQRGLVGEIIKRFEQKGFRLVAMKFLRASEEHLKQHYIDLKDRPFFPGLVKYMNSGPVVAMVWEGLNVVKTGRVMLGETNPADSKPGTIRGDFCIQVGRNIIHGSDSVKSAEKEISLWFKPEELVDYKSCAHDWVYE
T4 sequence (P09874 whole entry): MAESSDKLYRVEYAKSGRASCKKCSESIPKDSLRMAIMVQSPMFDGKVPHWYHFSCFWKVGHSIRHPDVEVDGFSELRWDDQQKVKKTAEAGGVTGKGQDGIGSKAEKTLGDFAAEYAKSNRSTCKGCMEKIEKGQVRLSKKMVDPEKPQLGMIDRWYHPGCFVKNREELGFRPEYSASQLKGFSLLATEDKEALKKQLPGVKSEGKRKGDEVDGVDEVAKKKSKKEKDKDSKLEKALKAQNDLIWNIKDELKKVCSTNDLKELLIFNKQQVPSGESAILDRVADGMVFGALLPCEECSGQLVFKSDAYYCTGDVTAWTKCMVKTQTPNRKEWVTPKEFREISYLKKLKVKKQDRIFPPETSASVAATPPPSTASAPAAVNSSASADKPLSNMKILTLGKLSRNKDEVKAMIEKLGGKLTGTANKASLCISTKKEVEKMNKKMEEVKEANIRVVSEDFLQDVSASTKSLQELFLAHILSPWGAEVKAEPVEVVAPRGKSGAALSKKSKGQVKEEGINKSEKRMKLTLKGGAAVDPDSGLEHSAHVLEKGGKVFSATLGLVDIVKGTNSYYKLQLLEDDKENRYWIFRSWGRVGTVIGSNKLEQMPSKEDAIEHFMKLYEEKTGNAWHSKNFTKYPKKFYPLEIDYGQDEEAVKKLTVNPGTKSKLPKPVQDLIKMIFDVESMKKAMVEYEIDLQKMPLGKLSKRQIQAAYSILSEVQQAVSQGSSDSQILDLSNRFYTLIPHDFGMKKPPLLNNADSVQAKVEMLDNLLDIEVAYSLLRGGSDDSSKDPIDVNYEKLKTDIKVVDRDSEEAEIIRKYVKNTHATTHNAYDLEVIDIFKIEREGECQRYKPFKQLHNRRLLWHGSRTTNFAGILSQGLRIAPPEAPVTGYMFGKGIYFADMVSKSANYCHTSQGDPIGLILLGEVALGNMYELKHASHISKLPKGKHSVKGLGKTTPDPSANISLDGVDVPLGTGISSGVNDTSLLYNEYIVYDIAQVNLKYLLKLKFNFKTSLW

Compound: [Ca+2].[Cl-].[Cl-] [CaCl2]
- inhibition of CysQ (CysQ [1]; 2 mM CaCl2, in the presence of 200 mM NaCl): complete inhibition

Compound: Nc1ncnc2c1ncn2[C@@H]1O[C@H](COP(=O)(O)OP(=O)(O)OP(=O)(O)O)[C@@H](O)[C@H]1O [ATP]
- inhibition of the cleavage reaction (NM23-H2; 0.5 mM): 50%

Compound: Nc1ncnc2c1ncn2[C@@H]1O[C@H](COP(=O)(O)O)[C@@H](O)[C@H]1O [AMP, 5′adenosine monophosphate]
- inhibition of degradation of nanoRNA by Orn (Orn [2]): inhibiting
- binding of Orn to nucleotide-agarose (Orn [3]): roughly one third
- binding of CysQ to nucleotide-agarose (CysQ [4]): not

Compound: [Cl-].[Na+] [sodium, NaCl]
- inhibition of CysQ by sodium (CysQ [1]; physiological concentrations, 200 mM NaCl): not inhibitory

Compound: Nc1ncnc2c1ncn2[C@@H]1O[C@H](COP(=O)(O)O)[C@@H](OP(=O)(O)O)[C@H]1O [pAp, 3′-phosphoadenosine 5′-phosphate]
- inhibition of degradation of nanoRNA by Orn (Orn [2]): significantly more pronounced
- inhibition of Sfn-catalyzed degradation of nanoRNA (Sfn [5]; 20 μM pAp): Significant inhibition
- inhibition of Sfn-catalyzed degradation of nanoRNA (Sfn [5]; 50 μM pAp): increasing inhibition
- sensitivity of Sfn-catalyzed degradation of DNA oligos (Sfn [6]): highly sensitive
- PARP activity (PARP): 60%
- binding of Orn to nucleotide-agarose (Orn [3]): almost quantitatively
- binding of CysQ to nucleotide-agarose (CysQ [4]): almost quantitatively

Compound: Nc1ncnc2c1ncn2[C@@H]1O[C@H](COP(=O)(O)OP(=O)(O)O)[C@@H](O)[C@H]1O [ADP]
- inhibition of the cleavage reaction (yes/no) (NM23-H2): not
